The results in this text go back to patent publication US9840513B2 (AbbVie S.à.r.l., priority 2015, dated 2017).

pEC50: −log10 of the molar value.

This assay concerns the target T1, F508delCFTR cell surface expression in CFBE41o-F508delCFTR-HRP cells (Homo sapiens, UniProt P13569, DEL508-508).
T1 construct: fused on or other part: Horseradish peroxidase (HRP) reporter inserted in the fourth exofacial (extracellular) loop of CFTR; expression is doxycycline-inducible
As to the kind of experiment: Cell Surface Expression-Horse Radish Peroxidase (CSE-HRP) Assay. It is filed as cell-based. The settings on record: for pEC50: CFBE41o-F508delCFTR-HRP cells, 18-24 hours at 33° C., 8-point curve, highest concentration 20 μM; for Maximum % activity (%): maximum at any tested concentration, normalized to on-plate positive control (3 μM). The gist of the method: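 Correctors incubated 18-24 h at 33 °C on doxycycline-induced (0.5 μg/mL, 72 h) CFBE41o-F508delCFTR-HRP cells, 3-fold series from 20 μM. After DPBS washes, luminol luminescence read; activity expressed relative to DMSO and a 3 μM positive control, EC50 fitted from triplicate plates.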

T1 sequence (P13569 with tags, fused parts or gaps DEL508-508 limits assumed): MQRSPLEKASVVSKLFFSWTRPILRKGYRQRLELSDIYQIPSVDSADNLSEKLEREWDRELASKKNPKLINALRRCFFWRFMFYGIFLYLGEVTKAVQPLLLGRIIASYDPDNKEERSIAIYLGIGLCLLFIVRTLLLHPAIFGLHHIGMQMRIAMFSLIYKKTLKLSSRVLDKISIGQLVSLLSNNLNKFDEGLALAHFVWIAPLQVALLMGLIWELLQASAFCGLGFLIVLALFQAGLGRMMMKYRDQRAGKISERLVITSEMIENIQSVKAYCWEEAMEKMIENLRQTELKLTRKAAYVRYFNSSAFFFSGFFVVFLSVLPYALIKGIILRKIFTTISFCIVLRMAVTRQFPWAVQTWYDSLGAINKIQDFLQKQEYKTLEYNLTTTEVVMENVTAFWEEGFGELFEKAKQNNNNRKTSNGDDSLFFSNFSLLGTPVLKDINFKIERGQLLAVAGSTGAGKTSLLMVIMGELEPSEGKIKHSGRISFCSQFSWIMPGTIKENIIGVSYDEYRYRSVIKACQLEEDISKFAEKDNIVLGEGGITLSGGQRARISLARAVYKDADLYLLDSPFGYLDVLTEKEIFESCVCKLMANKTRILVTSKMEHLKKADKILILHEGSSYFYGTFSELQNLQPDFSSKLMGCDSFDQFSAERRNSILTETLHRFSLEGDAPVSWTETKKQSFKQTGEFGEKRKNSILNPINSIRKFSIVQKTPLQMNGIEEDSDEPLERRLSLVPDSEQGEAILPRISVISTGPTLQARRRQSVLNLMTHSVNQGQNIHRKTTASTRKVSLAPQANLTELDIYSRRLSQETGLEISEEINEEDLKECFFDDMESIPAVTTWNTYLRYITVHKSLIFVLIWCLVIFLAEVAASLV
T1 sequence (P13569 919-1480 limits assumed, stated change not applied): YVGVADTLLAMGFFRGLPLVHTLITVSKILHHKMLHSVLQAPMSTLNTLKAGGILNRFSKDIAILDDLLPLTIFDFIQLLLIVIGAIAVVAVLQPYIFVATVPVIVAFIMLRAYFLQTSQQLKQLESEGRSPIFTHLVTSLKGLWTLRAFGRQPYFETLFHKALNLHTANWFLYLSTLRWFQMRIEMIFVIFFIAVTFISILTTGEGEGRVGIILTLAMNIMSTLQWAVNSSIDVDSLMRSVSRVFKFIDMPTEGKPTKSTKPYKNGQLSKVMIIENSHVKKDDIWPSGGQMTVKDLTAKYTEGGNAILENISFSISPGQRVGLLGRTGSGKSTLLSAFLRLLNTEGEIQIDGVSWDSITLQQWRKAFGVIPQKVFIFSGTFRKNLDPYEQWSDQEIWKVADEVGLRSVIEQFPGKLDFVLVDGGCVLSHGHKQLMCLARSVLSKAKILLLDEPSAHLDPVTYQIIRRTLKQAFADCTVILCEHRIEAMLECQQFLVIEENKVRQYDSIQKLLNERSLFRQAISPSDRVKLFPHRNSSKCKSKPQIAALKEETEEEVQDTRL

Regarding `C[C@]1(C(=O)N[C@H]2C[C@@H](C3(C(=O)O)CC3)Oc3cc(OC(F)(F)F)ccc32)COc2cc3c(cc21)OC(F)(F)O3` [Example 201, 1-[(2S,4S)-4-{[(7R)-2,2-difluoro-7-methyl-6,7-dihydro-2H-furo[2,3-f][1,3]benzodioxole-7-carbonyl]amino}-7-(trifluoromethoxy)-3,4-dihydro-2H-1-benzopyran-2-yl]cyclopropane-1-carboxylic acid], the pEC50 is 5.79 and the “Maximum % activity (%)” value stood at 71%.
For `COc1ccc2c(c1)O[C@@H](c1nnn[nH]1)C[C@H]2NC(=O)[C@@]1(C)COc2cc3c(cc21)OC(F)(F)O3` [Example 202, (7R)-2,2-difluoro-N-[(2R,4R)-7-methoxy-2-(1H-tetrazol-5-yl)-3,4-dihydro-2H-1-benzopyran-4-yl]-7-methyl-6,7-dihydro-2H-furo[2,3-f][1,3]benzodioxole-7-carboxamide], in that order: < 4.70 and 8%.
For `C[C@]1(C(=O)Nc2cc3cc(C4(COCc5ccccc5)CC4)n(C[C@@H](O)CO)c3cc2F)COc2cc3c(cc21)OC(F)(F)O3` [Example 203, (7R)—N-(2-{1-[(benzyloxy)methyl]cyclopropyl}-1-[(2R)-2,3-dihydroxypropyl]-6-fluoro-1H-indol-5-yl)-2,2-difluoro-7-methyl-6,7-dihydro-2H-furo[2,3-f][1,3]benzodioxole-7-carboxamide] the same measures were 6.18 and 125%.
Take `CC(C)(COCc1ccccc1)c1cc2cc(NC(=O)[C@@]3(C)COc4cc5c(cc43)OC(F)(F)O5)c(F)cc2[nH]1` [Example 204, (7R)—N-{2-[1-(benzyloxy)-2-methylpropan-2-yl]-6-fluoro-1H-indol-5-yl}-2,2-difluoro-7-methyl-6,7-dihydro-2H-furo[2,3-f][1,3]benzodioxole-7-carboxamide]: the pEC50 is 6.51 and the “Maximum % activity (%)” value was determined as 134%.
For `CC(C)(COCc1ccccc1)c1cc2cc(NC(=O)[C@]3(C)COc4cc5c(cc43)OC(F)(F)O5)c(F)cc2n1C[C@@H](O)COCc1ccccc1` [Example 205, (7S)—N-{1-[(2R)-3-(benzyloxy)-2-hydroxypropyl]-2-[1-(benzyloxy)-2-methylpropan-2-yl]-6-fluoro-1H-indol-5-yl}-2,2-difluoro-7-methyl-6,7-dihydro-2H-furo[2,3-f][1,3]benzodioxole-7-carboxamide], in that order: < 4.70 and 18%.
For `CC1(C)OC[C@@H](Cn2c3c(c4cc(NC(=O)[C@@]5(C)COc6cc7c(cc65)OC(F)(F)O7)c(F)cc42)C(C)(C)OCC3(C)C)O1` [Example 207, (7R)—N-(5-{[(4R)-2,2-dimethyl-1,3-dioxolan-4-yl]methyl}-7-fluoro-1,1,4,4-tetramethyl-1,3,4,5-tetrahydropyrano[4,3-b]indol-8-yl)-2,2-difluoro-7-methyl-6,7-dihydro-2H-furo[2,3-f][1,3]benzodioxole-7-carboxamide] the same measures were 6.46 and 69%.
For `COc1ccc2c(c1)O[C@@H](c1ccc(C(=O)Nc3ccccc3O)cn1)C[C@H]2NC(=O)[C@@]1(C)COc2cc3c(cc21)OC(F)(F)O3` [Example 208, 6-[(2R,4R)-4-{[(7R)-2,2-difluoro-7-methyl-6,7-dihydro-2H-furo[2,3-f][1,3]benzodioxole-7-carbonyl]amino}-7-methoxy-3,4-dihydro-2H-1-benzopyran-2-yl]-N-(2-hydroxyphenyl)pyridine-3-carboxamide], in that order: 8.00 and 103%.
In the case of `CCCN(CCO)C(=O)c1ccc([C@H]2C[C@@H](NC(=O)[C@@]3(C)COc4cc5c(cc43)OC(F)(F)O5)c3ccc(OC)cc3O2)nc1` [Example 209, 6-[(2R,4R)-4-{[(7R)-2,2-difluoro-7-methyl-6,7-dihydro-2H-furo[2,3-f][1,3]benzodioxole-7-carbonyl]amino}-7-methoxy-3,4-dihydro-2H-1-benzopyran-2-yl]-N-(2-hydroxyethyl)-N-propylpyridine-3-carboxamide], the pEC50 was 7.52 and the “Maximum % activity (%)” value is given as 122%.
For `COc1ccc2c(c1)O[C@@H](c1ccc(C(=O)N(CCO)Cc3ccccc3)cn1)C[C@H]2NC(=O)[C@@]1(C)COc2cc3c(cc21)OC(F)(F)O3` [Example 210, N-benzyl-6-[(2R,4R)-4-{[(7R)-2,2-difluoro-7-methyl-6,7-dihydro-2H-furo[2,3-f][1,3]benzodioxole-7-carbonyl]amino}-7-methoxy-3,4-dihydro-2H-1-benzopyran-2-yl]-N-(2-hydroxyethyl)pyridine-3-carboxamide], in that order: 7.52 and 147%.
For `COc1ccc2c(c1)O[C@@H](c1ccc(C(=O)N(C)CC(O)c3ccccc3)cn1)C[C@H]2NC(=O)[C@@]1(C)COc2cc3c(cc21)OC(F)(F)O3` (stereo partly drawn) [Example 211, 6-[(2R,4R)-4-{[(7R)-2,2-difluoro-7-methyl-6,7-dihydro-2H-furo[2,3-f][1,3]benzodioxole-7-carbonyl]amino}-7-methoxy-3,4-dihydro-2H-1-benzopyran-2-yl]-N-(2-hydroxy-2-phenylethyl)-N-methylpyridine-3-carboxamide] the same measures were 7.52 and 124%.
For `COc1ccc2c(c1)O[C@@H](c1ccc(C(=O)N3CCC(O)CC3)cn1)C[C@H]2NC(=O)[C@@]1(C)COc2cc3c(cc21)OC(F)(F)O3` [Example 212, (7R)-2,2-difluoro-N-{(2R,4R)-2-[5-(4-hydroxypiperidine-1-carbonyl)pyridin-2-yl]-7-methoxy-3,4-dihydro-2H-1-benzopyran-4-yl}-7-methyl-6,7-dihydro-2H-furo[2,3-f][1,3]benzodioxole-7-carboxamide], in that order: 7.52 and 119%.
Turning to `COc1ccc2c(c1)O[C@@H](c1ccc(C(=O)NC(C)(C)CO)cn1)C[C@H]2NC(=O)[C@@]1(C)COc2cc3c(cc21)OC(F)(F)O3` [Example 215, 6-[(2R,4R)-4-{[(7R)-2,2-difluoro-7-methyl-6,7-dihydro-2H-furo[2,3-f][1,3]benzodioxole-7-carbonyl]amino}-7-methoxy-3,4-dihydro-2H-1-benzopyran-2-yl]-N-(1-hydroxy-2-methylpropan-2-yl)pyridine-3-carboxamide], the pEC50 was 7.52 and the “Maximum % activity (%)” value worked out at 113%.
For `COc1ccc2c(c1)O[C@@H](c1ccc(C(=O)NC(CO)c3ccccc3)cn1)C[C@H]2NC(=O)[C@@]1(C)COc2cc3c(cc21)OC(F)(F)O3` (stereo partly drawn) [Example 216, 6-[(2R,4R)-4-{[(7R)-2,2-difluoro-7-methyl-6,7-dihydro-2H-furo[2,3-f][1,3]benzodioxole-7-carbonyl]amino}-7-methoxy-3,4-dihydro-2H-1-benzopyran-2-yl]-N-(2-hydroxy-1-phenylethyl)pyridine-3-carboxamide], in that order: 7.52 and 130%.
For `COc1ccc2c(c1)O[C@@H](c1ccc(C(=O)NC3CCS(=O)(=O)CC3)cn1)C[C@H]2NC(=O)[C@@]1(C)COc2cc3c(cc21)OC(F)(F)O3` [Example 217, 6-[(2R,4R)-4-{[(7R)-2,2-difluoro-7-methyl-6,7-dihydro-2H-furo[2,3-f][1,3]benzodioxole-7-carbonyl]amino}-7-methoxy-3,4-dihydro-2H-1-benzopyran-2-yl]-N-(1,1-dioxo-1lambda^6-thian-4-yl)pyridine-3-carboxamide] the same measures were 6.92 and 104%.
For `COc1ccc2c(c1)O[C@@H](c1ccc(C(=O)N3CCC(F)(F)CC3)cn1)C[C@H]2NC(=O)[C@@]1(C)COc2cc3c(cc21)OC(F)(F)O3` [Example 218, (7R)—N-{(2R,4R)-2-[5-(4,4-difluoropiperidine-1-carbonyl)pyridin-2-yl]-7-methoxy-3,4-dihydro-2H-1-benzopyran-4-yl}-2,2-difluoro-7-methyl-6,7-dihydro-2H-furo[2,3-f][1,3]benzodioxole-7-carboxamide] the same measures were 8.00 and 116%.
Consider `COc1ccc2c(c1)O[C@@H](c1ccc(C(=O)N3CCCOCC3)cn1)C[C@H]2NC(=O)[C@@]1(C)COc2cc3c(cc21)OC(F)(F)O3` [Example 219, (7R)-2,2-difluoro-N-{(2R,4R)-7-methoxy-2-[5-(1,4-oxazepane-4-carbonyl)pyridin-2-yl]-3,4-dihydro-2H-1-benzopyran-4-yl}-7-methyl-6,7-dihydro-2H-furo[2,3-f][1,3]benzodioxole-7-carboxamide], for which the pEC50 is 7.52 and the “Maximum % activity (%)” value is on record as 105%.
Turning to `COc1ccc2c(c1)O[C@@H](c1ccc(C(=O)NC3c4ccccc4CC3O)cn1)C[C@H]2NC(=O)[C@@]1(C)COc2cc3c(cc21)OC(F)(F)O3` (stereo partly drawn) [Example 221, 6-[(2R,4R)-4-{[(7R)-2,2-difluoro-7-methyl-6,7-dihydro-2H-furo[2,3-f][1,3]benzodioxole-7-carbonyl]amino}-7-methoxy-3,4-dihydro-2H-1-benzopyran-2-yl]-N-(2-hydroxy-2,3-dihydro-1H-inden-1-yl)pyridine-3-carboxamide], the pEC50 is 7.10 and the “Maximum % activity (%)” value stood at 125%.
For `COc1ccc2c(c1)O[C@@H](c1ccc(C(=O)NC(CO)c3ccccc3OC)cn1)C[C@H]2NC(=O)[C@@]1(C)COc2cc3c(cc21)OC(F)(F)O3` (stereo partly drawn) [Example 222, 6-[(2R,4R)-4-{[(7R)-2,2-difluoro-7-methyl-6,7-dihydro-2H-furo[2,3-f][1,3]benzodioxole-7-carbonyl]amino}-7-methoxy-3,4-dihydro-2H-1-benzopyran-2-yl]-N-[2-hydroxy-1-(2-methoxyphenyl)ethyl]pyridine-3-carboxamide], in that order: 7.70 and 116%.
